From patent US11110141B2, “Herbal compositions for the prevention or treatment of urinary incontinence and overactive bladder” (Rox IP Pty Ltd., priority 2011, dated 2021)

Tested on: bladder control problems (urinary frequency, nocturia, stress incontinence, interstitial cystitis)
Test: Case studies
Type: in vivo, human
Method: person with a history of bladder frequency since childhood. They were diagnosed as a child, via cystometric studies, as having a small bladder. They were not medicated.
They presented urinary frequency, every 1.5 hours; nocturia (waking for the toilet at night) every 1.5 to 2.5 hours.
If consumed large quantities of alcohol (greater than 8 standard drinks), would experience flooding nocturesis (bed wetting). […]
person with stress incontinence (2-7 times daily) and urinary frequency (11 times daily). […] When presented, they were using oxybutynin patches (Oxytrol). A specialist recommended that they change patches every 3 days.
Person presented with interstitial cystitis that had been worsening for at least the past 5 years. They presented with penile pain (and some lower abdominal pain) that would increase in intensity the fuller their bladder, with relief on urination. As a result, they would need to urinate at least every 1.5 hours, day and night. If they went too long, the pain would increase to the point where they found it extremely difficult to walk or move. Every month, they would have an episode, usually during the night, where they would pass copious amounts of blood and some mucous from the bladder.
They would also find that every two weeks their symptom severity would increase and they would have “horrific, sharp pain all day every day” for two days. […]

| Structure (SMILES) | tolerability of previously tried drugs (in vivo) | tolerability of previously tried drugs (Case 2, patient history) |
| --- | --- | --- |
| Cc1ccc(O)c([C@H](CCN(C(C)C)C(C)C)c2ccccc2)c1 [Detrol] | could not tolerate the side effects of dry mouth and nasal passages | – |
| CCN(CC)CC#CCOC(=O)C(O)(c1ccccc1)C1CCCCC1 (centres unmarked) [oxybutynin] | – | could not tolerate the side effects of dry mouth and nasal passages |
